According to patent US11077070B2 (Wilmore Labs LLC, priority 2009, dated 2021):

Legend:
[1] = Pharmacokinetic study, 100 mg resveratrol, oral transmucosal resveratrol/solubilizer formulation (test) versus controls; assay type: in vivo, human; conditions: for Cav: plasma
Procedure: Any adverse effects are recorded. […] These adjustments are made using the formulas […])).

[2] = Resveratrol solubility in ribose, U.V. HPLC and mass spectrometry peak areas (Table 1); assay type: physicochemical
Procedure: The peak areas of the LC traces using U.V. and MS spectral detection were determined. […]

[3] = Solubility of resveratrol in 3M ribose, U.V. HPLC and MS peak areas (Table 2); assay type: physicochemical
From the text: Table 2 and 3 summarize the results.

[4] = trans/cis isomerisation of resveratrol in water or 3 M ribose, with or without 30 minutes U.V. light (Table 3, FIGS. 1-4); assay type: physicochemical; conditions: for cis isomer peak area, Mass spectroscopy / cis isomer peak area, PDA (trans-316 nm, cis-284 nm) / cis isomer peak area, Tandem mass spectroscopy / trans isomer peak area, Mass spectroscopy / trans isomer peak area, PDA (trans-316 nm, cis-284 nm) / trans isomer peak area, Tandem mass spectroscopy: UV exposed 30 minutes
From the text: PDA-284 nm panel: NL: 4.31E5; nm=283.5-284.5; PDA Avalon. MS Panel: NL: 3.90E6; m/z=226.60-227.60; F: -c APCI corona; sid=10.00; Full ms [100.00-1000.00] MS ICIS. Tandem MS panel: NL: 7.71E5; m/z=184.50-185.50; F: -c APCI corona; sid=10.00 Full ms2 227.00@cid45.00 [60.00-250.00] MS ICIS.

[5] = Dissolution of resveratrol in sugar or sugar alcohol solutions (observation); assay type: physicochemical
Procedure: A ribose/water solution (18 g/2 g) was heated.
In another experiment, various sucrose/water mixtures were heated to boiling point. Reservatrol was added to each sucrose/water solution. […] On cooling, resveratrol/sucrose/water mixtures formed crystalline solids composed of small crystals; in contrast, the sucrose/water solution formed a crystalline solid composed of large crystals.
In another experiment, water was added to the solid resveratrol/sucrose/water mixtures.
An aqueous solution of dextrose was prepared and heated to boiling. The resveratrol was added to the warm syrup and allowed to cool further. While still liquid, the syrup retained a capsinoid flavor. On cooling further, a white powdery mixture of crystals was formed. No capsinoid-like flavor was detected when the solid mixture was tasted.
Resveratrol was added to warm solutions of xylitol or erythritol. […] On cooling the xylitol or erythritol solution formed a crystalline solid that appeared to exclude the resveratrol. No capsaicirioid-like flavor was detected when each reservatrol/xylitol and reservatrol/erythritol solid mixture was tasted.
Water was added to the each reservatrol/xylitol and reservatrol/erythritol mixture.

[6] = 0.4 mg/ml standard in MeOH/water
[7] = 1.3 mg resveratrol in 1 ml 1M ribose
[8] = 1.3 mg resveratrol in 1 ml water
[9] = 1.6 mg resveratrol in 1 ml 3M ribose
[10] = 1.6 mg resveratrol in 1 ml water

O=S(=O)(O)Oc1cc(O)cc(/C=C/c2ccc(O)cc2)c1 [3-sulfate, trans-resveratrol-3-O-sulfate] showed a Cav ([1]; Control(s): 100 mg resveratrol) of 34 ng/mL and a Cav ([1]; Test: 100 mg resveratrol, oral transmucosal resveratrol/solubilizer formulation) of 23 ng/mL.

With Oc1ccc(/C=C/c2cc(O)cc(O)c2)cc1 [Resveratrol, 3,5,4′-trihydroxy-trans-stilbene] the “Resveratrol MS peak area” value [2, 6] was 361620189, the “Resveratrol MS/MS peak area” value [2, 6] was 22825783 and the “Resveratrol UV peak area” value [2, 6] was 32589198. For the same compound, the “Resveratrol MS peak area” value [2, 7] was 34006422, the “Resveratrol MS/MS peak area” value [2, 7] was 2177343 and the “Resveratrol UV peak area” value [2, 7] was 6879044. For the same compound, the “Resveratrol MS peak area” value [2, 8] was 17991728, the “Resveratrol MS/MS peak area” value [2, 8] was 1055482 and the “Resveratrol UV peak area” value [2, 8] was 3757436. The “Resveratrol MS peak area” value ([2]; 1:1 dilution of ribose sample) was 59987321, the “Resveratrol MS/MS peak area” value ([2]; 1:1 dilution of ribose sample) was 4277049 and the “Resveratrol UV peak area” value ([2]; 1:1 dilution of ribose sample) was 10156011. For the same compound, the “Resveratrol MS peak area” value ([2]; 1:1 dilution of water sample) was 36350491, the “Resveratrol MS/MS peak area” value ([2]; 1:1 dilution of water sample) was 2235878 and the “Resveratrol UV peak area” value ([2]; 1:1 dilution of water sample) was 7414378. For the same compound, the “percentage increase in the peak area with ribose” value ([2]; ribose (undiluted) sample versus water sample) was 83.1%, the “peak area, Mass spectroscopy” value [3, 9] was 69226333 and the “peak area, PDA (trans-316 nm, cis-284 nm)” value [3, 9] was 17477801. The “peak area, Tandem mass spectroscopy” value [3, 9] was 11603388, the “peak area, Mass spectroscopy” value [3, 10] was 35925663 and the “peak area, PDA (trans-316 nm, cis-284 nm)” value [3, 10] was 10448839. For the same compound, the “peak area, Tandem mass spectroscopy” value [3, 10] was 6058729, the “% increase of peak area, Mass spectroscopy” value ([3]; 3M ribose versus water) was 92.7% and the “% increase of peak area, PDA (trans-316 nm, cis-284 nm)” value ([3]; 3M ribose versus water) was 67.3%. The “% increase of peak area, Tandem mass spectroscopy” value ([3]; 3M ribose versus water) was 91.5%, the “cis isomer peak area, Mass spectroscopy” value ([4]; 3M ribose) was 67794774 and the “cis isomer peak area, PDA (trans-316 nm, cis-284 nm)” value ([4]; 3M ribose) was 3348277. For the same compound, the “cis isomer peak area, Tandem mass spectroscopy” value ([4]; 3M ribose) was 12957854, the “trans isomer peak area, Mass spectroscopy” value ([4]; 3M ribose) was 30056046 and the “trans isomer peak area, PDA (trans-316 nm, cis-284 nm)” value ([4]; 3M ribose) was 9667985. For the same compound, the “trans isomer peak area, Tandem mass spectroscopy” value ([4]; 3M ribose) was 4678183, the “isomers detected, PDA-316 nm panel” value ([4]; FIG. 1, 1.6 mg resveratrol in 1 ml water, no U.V. exposure) was “cis isomer is not detected” and the “isomers detected, PDA-316 nm panel” value ([4]; FIG. 2, 1.6 mg resveratrol in 1 ml 3 M ribose, no U.V. exposure) was “cis isomer is not detected”. For the same compound, the “isomers detected, PDA-316 nm panel” value ([4]; FIG. 3, 1.6 mg resveratrol in 1 ml water exposed to U.V. light for 30 minutes) was “trans isomer and cis isomer peaks detected”, the “isomers detected, PDA-316 nm panel” value ([4]; FIG. 4, 1.6 mg resveratrol in 1 ml 3 M ribose exposed to U.V. light for 30 minutes) was “trans isomer and cis isomer peaks detected” and the “cis isomer peak area, Mass spectroscopy” value ([4]; Water) was 42202693. For the same compound, the “cis isomer peak area, PDA (trans-316 nm, cis-284 nm)” value ([4]; Water) was 2260306, the “cis isomer peak area, Tandem mass spectroscopy” value ([4]; Water) was 8357052 and the “trans isomer peak area, Mass spectroscopy” value ([4]; Water) was 7702267. The “trans isomer peak area, PDA (trans-316 nm, cis-284 nm)” value ([4]; Water) was 3293034, the “trans isomer peak area, Tandem mass spectroscopy” value ([4]; Water) was 1489337 and the “Serum Cmax levels of resveratrol, test versus control subjects” value ([1]; 100 mg resveratrol) was “higher in test subjects”. The “peak plasma level and bioavailability, test versus controls” value ([1]; resveratrol/solubilizer formulation by oral transmucosal route versus oral transmucosal resveratrol/sucrose or oral resveratrol/solubilizer) was “greater peak plasma level and bioavailability”, the solubility ([5]; aqueous dextrose solution, heated to boiling and cooled) was “not well soluble” and the solubility ([5]; in ribose and in fructose/dextrose) was “soluble”. The “solubility in the presence of ribose” value ([5]; ribose/water solution (18 g/2 g), 100 mg resveratrol to 1000 mg solution, inferred from sensation in the mouth) was “increased”, the dissolution ([5]; sucrose/water solution (1:1 v/v)) was “failed to dissolve” and the dissolution ([5]; various sucrose/water mixtures heated to about 90° C., then cooled) was “failed to dissolve”. For the same compound, the dissolution ([5]; warm solutions of xylitol or erythritol) was “observed not to dissolve”, the “behaviour on adding water” value ([5]; water added to reservatrol/xylitol and reservatrol/erythritol mixtures) was “precipitated out of solution” and the “behaviour on adding water” value ([5]; water added to the solid resveratrol/sucrose/water mixtures) was “precipitated out of solution”.
